{
  "source": "patent US20220130517A1",
  "about": "“PS[…] VARIOUS MENTAL HEALTH DISORDERS” (Ketamine SLC, priority 2020, published 2022)",
  "origin": "cited, not measured here",
  "test_system": "mental health disorder",
  "settings": "IV drip over 40 minutes, 0.5 mg/kg per session, six sessions over twelve days; some patients",
  "data": [
    {"compound": "CNC1(c2ccccc2Cl)CCCCC1=O", "note": "(stereo not shown) [ketamine]", "values": [
      {"measurement": "relief from the symptoms of mental health disorder", "value": "some patients experience relief from the symptoms of their mental health disorder for a period of time including weeks and/or months"}
    ]}
  ]
}
